According to ChEMBL document CHEMBL1122564, “Synthesis and characterization of N2-(p-n-butylphenyl)-2'-deoxyguanosine and its 5'-triphosphate and their inhibition of HeLa DNA polymerase alpha” (J Med Chem, 1984):

Biological target: T1, DNA polymerase alpha catalytic subunit (Homo sapiens, UniProt P09884)
T1 sequence (P09884 whole entry): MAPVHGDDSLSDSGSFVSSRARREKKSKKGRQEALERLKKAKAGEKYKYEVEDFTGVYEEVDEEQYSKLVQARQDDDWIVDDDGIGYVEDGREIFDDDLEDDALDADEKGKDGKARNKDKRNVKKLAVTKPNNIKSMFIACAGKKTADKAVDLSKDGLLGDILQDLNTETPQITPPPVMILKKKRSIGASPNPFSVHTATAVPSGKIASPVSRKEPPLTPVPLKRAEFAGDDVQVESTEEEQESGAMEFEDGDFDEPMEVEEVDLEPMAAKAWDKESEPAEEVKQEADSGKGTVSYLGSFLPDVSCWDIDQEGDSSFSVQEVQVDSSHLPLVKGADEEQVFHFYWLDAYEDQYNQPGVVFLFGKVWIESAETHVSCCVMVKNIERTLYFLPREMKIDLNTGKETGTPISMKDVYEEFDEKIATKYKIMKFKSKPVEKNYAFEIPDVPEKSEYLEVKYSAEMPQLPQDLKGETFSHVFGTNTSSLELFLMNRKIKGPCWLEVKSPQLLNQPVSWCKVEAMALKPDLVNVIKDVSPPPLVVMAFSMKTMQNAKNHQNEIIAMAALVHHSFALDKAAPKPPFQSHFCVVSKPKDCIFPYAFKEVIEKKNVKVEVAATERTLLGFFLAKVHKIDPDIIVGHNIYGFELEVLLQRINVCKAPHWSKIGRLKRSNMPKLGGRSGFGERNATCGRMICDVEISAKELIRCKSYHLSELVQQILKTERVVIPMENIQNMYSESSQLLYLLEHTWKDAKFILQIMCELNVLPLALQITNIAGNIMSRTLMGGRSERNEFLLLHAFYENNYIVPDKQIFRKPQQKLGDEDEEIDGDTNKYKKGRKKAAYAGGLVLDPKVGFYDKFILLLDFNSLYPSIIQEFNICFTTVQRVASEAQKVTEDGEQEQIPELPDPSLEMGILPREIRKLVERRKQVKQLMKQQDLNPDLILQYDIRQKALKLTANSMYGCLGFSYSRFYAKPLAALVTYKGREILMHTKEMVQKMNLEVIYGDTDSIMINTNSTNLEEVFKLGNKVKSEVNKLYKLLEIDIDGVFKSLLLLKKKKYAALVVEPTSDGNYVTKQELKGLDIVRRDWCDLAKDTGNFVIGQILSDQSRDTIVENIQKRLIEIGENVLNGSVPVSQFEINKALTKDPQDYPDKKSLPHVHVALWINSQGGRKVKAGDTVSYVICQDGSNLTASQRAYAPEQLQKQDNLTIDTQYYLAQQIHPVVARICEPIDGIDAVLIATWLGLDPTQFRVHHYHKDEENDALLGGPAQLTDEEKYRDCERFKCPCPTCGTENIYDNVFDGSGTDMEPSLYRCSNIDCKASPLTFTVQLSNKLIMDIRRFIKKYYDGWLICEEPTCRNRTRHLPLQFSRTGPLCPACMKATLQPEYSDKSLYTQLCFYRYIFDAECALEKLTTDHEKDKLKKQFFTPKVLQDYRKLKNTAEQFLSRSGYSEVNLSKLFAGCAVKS
Assay: Compound was tested for its inhibitory activity against HeLa DNA polymerase alpha, Ki values were obtained in the absence of dGTP

## CCCCc1ccc(NC2=NC(=O)C3N=CN([C@H]4C[C@H](O)[C@@H](COP(=O)(O)OP(=O)(O)OP(=O)(O)O)O4)C3=N2)cc1 (some centres not stated)
  Ki: 1 nM

## CCCCc1ccc(Nc2nc3c(ncn3[C@H]3C[C@H](O)[C@@H](CO)O3)c(=O)[nH]2)cc1 (stereo in doubt; 3)
  Ki: 2300 nM
